In patent publication EP2951180B1, “2,6,7,8 SUBSTITUTED PURINES AS HDM2 INHIBITORS” (Merck Sharp & Dohme Corp., priority 2013, dated 2014):
Like-named read-outs stand apart in the source and are kept apart here.

Biological target: T1, HDM2 (Homo sapiens, UniProt Q00987)
T1 construct: Thioredoxin (N); made in house; host or cells: E. coli strain BL21(DE3)Rosetta
Assay: HDM2 FRET assay (inhibition of binding of FITC labeled p53-pocket peptide to HDM2)
Settings: for IC50: read-out: FRET IC50
Source text: Methods: An HDM2 FRET assay was developed to assess the compounds' inhibitory activity towards binding of p53 protein. […] Protein was purified using Ni-affinity chromatography, followed by size exclusion chromatography using Superdex 75 26/60 column. […] The HDM2 assay buffer contained 1x Phosphate Buffered Saline (Invitrogen, Cat#14190), 0.01% BSA (Jackson ImmunoResearch, Cat# 001-000-162), 0.01% Tween-20. In the 1X assay buffer recombinant HDM2 protein, peptide and Lumi4-Tb Cryptate-conjugate mouse anti-6xHis antibody (cisbio, Cat#Tb61HISTLB) were added and transferred to ProxiPlate PLUS (PerkinElmer, Cat#6008269), containing compounds so that final DMSO concentration is 0.1% . Final concentrations of reagents in the assay wells are 0.5 nM HDM2, 0.25nM anti HIS (Tb label) antibody and 3nM peptide. […] Ratio of em520/em495 was used to calculate %inhibition and to obtain IC50 with 4-parameter logistic equation.
IC50 DETERMINATIONS: Dose-response curves were plotted from the inhibition data, from 10 point serial dilutions of inhibitory compounds. Concentration of compound was plotted against em520/Cem495 ratio signal. To generate IC50 values, the dose-response curves were fitted to a standard sigmoidal curve and IC50 values were derived by nonlinear regression analysis.

[1] = 0.5 nM HDM2 (residues 17 to 125), 3nM peptide, two hour incubation at room temperature

T1 sequence (Q00987 17-125): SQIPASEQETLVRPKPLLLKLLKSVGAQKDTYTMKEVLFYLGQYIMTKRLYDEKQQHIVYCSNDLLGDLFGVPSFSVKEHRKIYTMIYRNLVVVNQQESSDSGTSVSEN

## COc1ncc(Cl)cc1-c1nc(-c2noc(=O)[nH]2)nc2nc(N3CCOC[C@H]3c3ccccc3)n(C[C@H]3CC[C@H](C)CC3)c12 [Example 16.156, 3-{6-(5-chloro-2-methoxypyridin-3-yl)-7-[(trans-4-methylcyclohexyl)methyl]-8-[(3R)-3-phenylmorpholin-4-yl]-7H-purin-2-yl}-1,2,4-oxadiazol-5(4H)-one]
[1]
  IC50: 0.851 nM

## Cc1cccc(-c2nc3nc(C(=O)O)nc(N[C@H](C)C4CCC4)c3n2C[C@H]2CC[C@H](C)CC2)c1 [Example 15.14, 6-{[(1R)-1-cyclobutylethyl]amino}-7-[(trans-4-methylcyclohexyl)methyl]-8-(3-methylphenyl)-7H-purine-2-carboxylic acid]
[1]
  IC50: 2.91 nM

## Cc1cccc(-c2nc3nc(C(=O)O)nc(N(C)C4CCCC4)c3n2Cc2ccc(C(F)(F)F)cc2)c1 [Example 6.65, 6-[cyclopentyl(methyl)amino]-8-(3-methylphenyl)-7-[4-(trifluoromethyl)benzyl]-7H-purine-2-carboxylic acid]
read-out: inh. at 1000 nM (FRET)
  inhibition at 1 µM: 35%

## C[C@@H]1CN(C(=O)C2CC2)CCN1c1nc2nc(-c3noc(=O)[nH]3)nc(N[C@H](C)C3CCC3)c2n1C[C@H]1CC[C@H](C)CC1 [Example 17.16, 3-(6-{[(1R)-1-cyclobutylethyl]amino}-8-[(2R)-4-(cyclopropylcarbonyl) -2-methylpiperazin-1-yl]-7-[(trans-4-methylcyclohexyl)methyl]-7H-purin-2-yl)-1,2,4-oxadiazol-5(4H)-one]
Table 17.2
  IC50: 1.22 nM

## C[C@H]1OCCN(c2nc3nc(-c4noc(=O)[nH]4)nc(-c4cccc(Cl)c4)c3n2C[C@H]2CC[C@H](C)CC2)[C@@H]1c1ccccc1 [Example 16.127, 3-{6-(3-chlorophenyl)-7-[(trans-4-methylcyclohexyl)methyl]-8-[(2R,3R)-2-methyl-3-phenylmorpholin-4-yl]-7H-purin-2-yl}-1,2,4-oxadiazol-5(4H)-one]
[1]
  IC50: 1.06 nM

## Cc1nc(-c2cccc(-c3nc(-c4noc(=O)[nH]4)nc4nc(N5CCOC[C@H]5c5ccccc5)n(C[C@H]5CC[C@H](C)CC5)c34)c2)no1 [Example 16.112, 3-{7-[(trans-4-methylcyclohexyl)methyl]-6-[3-(5-methyl-1,2,4-oxadiazol-3-yl)phenyl]-8-[(3R)-3-phenylmorpholin-4-yl]-7H-purin-2-yl}-1,2,4-oxadiazol-5(4H)-one]
[1]
  IC50: 18 nM

## CC[C@@H](C)Nc1nc(C(=O)O)nc2nc(-c3cccc(C)c3)n(Cc3ccc(C(F)(F)F)cc3)c12 [Example 6.60, 8-(3-methylphenyl)-6-{[(1R)-1-methylpropyl]amino}-7-[4-(trifluoromethyl)benzyl]-7H-purine-2-carboxylic acid]
Table 6
  IC50: 583 nM

## COCC1COCCN1c1nc2nc(-c3noc(=O)[nH]3)nc(N[C@H](C)C3CCC3)c2n1C[C@H]1CC[C@H](C)CC1 (single isomer, unassigned) [Example 11.150]
Table 11
  IC50: 6.73 nM

## C[C@@H](Nc1nc(C(=O)O)nc2nc(C3(c4ccccc4)CC3)n(C[C@H]3CC[C@H](C)CC3)c12)C1CCC1 [Example 20.4, 6-{[(1R)-1-cyclobutylethyl]amino}-7-[(trans-4-methylcyclohexyl)methyl]-8-(1-phenylcyclopropyl)-7H-purine-2-carboxylic acid]
Table 20
  IC50: 2.58 nM

## C[C@H]1OCCN(c2nc3nc(-c4n[nH]c(=O)o4)nc(-c4cccc(Cl)c4)c3n2C[C@H]2CC[C@H](C)CC2)[C@@H]1c1ccccc1 [Example 16.142, 5-{6-(3-chlorophenyl)-7-[(trans-4-methylcyclohexyl)methyl]-8-[(2R,3R)-2-methyl-3-phenylmorpholin-4-yl]-7H-purin-2-yl} - 1,3,4-oxadiazol-2(3H)-one]
[1]
  IC50: 1.5 nM

## C[C@@H]1COCCN1c1nc2nc(-c3n[nH]c(=O)o3)nc(N[C@H](C)C3CCC3)c2n1C[C@H]1CC[C@H](C)CC1 [Example 11.97, 5-(6-{[(1R)-1-cyclobutylethyl]amino}-7-[(trans-4-methylcyclohexyl)methyl]-8-[(3R)-3-methylmorpholin-4-yl]-7H-purin-2-yl)-1,3,4-oxadiazol-2(3H)-one]
Table 11
  IC50: 1.94 nM

## C[C@@H](Nc1nc(-c2noc(=O)[nH]2)nc2nc(C(C)(O)C(C)(C)C)n(C[C@H]3CC[C@H](C)CC3)c12)C1CCC1 (stereo partly drawn) [Example 22.2, 3-(6-{[(1R)-1-cyclobutylethyl]amino}-8-(1-hydroxy-1,2,2-trimethylpropyl)-7-[(trans-4-methylcyclohexyl)methyl]-7H-purin-2-yl)-1,2,4-oxadiazol-5(4H)-one]
Table 22
  IC50: 10.6 nM

## Cc1cccc(-c2nc3nc(C(=O)O)nc(NC4CCC(C)CC4C)c3n2Cc2ccc(C(F)(F)F)cc2)c1 (centres unmarked) [Example 6.34, 6-[(2,4-dimethylcyclohexyl)amino]-8-(3-methylphenyl)-7-[4-(trifluoromethyl)benzyl]-7H-purine-2-carboxylic acid]
Table 6
  IC50: 1140 nM

## C[C@H]1CC[C@H](Cn2c(N3CCO[C@H]4CCC[C@@H]43)nc3nc(-c4n[nH]c(=O)o4)nc(-c4cccc(Cl)c4)c32)CC1 [Example 16.83, 5-{6-(3-chlorophenyl)-8-[(4aS,7aS)-hexahydrocyclopenta [b][1,4]oxazin-4(4aH)-yl]-7-[(trans-4-methylcyclohexyl)methyl]-7H-purin-2-yl}-1,3,4-oxadiazol-2(3H)-one]
[1]
  IC50: 186 nM

## C[C@@H](Nc1nc(C(=O)O)nc2nc(NC(=O)c3ccccc3)n(Cc3ccc(C(F)(F)F)cc3)c12)C1CCC1 [Example 9.38]
Table 9
  IC50: 657 nM

## CC[C@@H](c1ccccc1)N(C)c1nc2nc(C(=O)O)nc(N[C@H](C)C3CCC3)c2n1Cc1ccc(C(F)(F)F)cc1 [Example 9.58, 6-{[(1R)-1-cyclobutylethyl]amino}-8-{methyl[(1S)-1-phenylpropyl]amino}-7-[4-(trifluoromethyl)benzyl]-7H-purine-2-carboxylic acid]
Table 9
  IC50: 16.4 nM

## CCCC(CCC)Nc1nc(C(=O)O)nc2nc(-c3cccc(C)c3)n(Cc3ccc(C(F)(F)F)cc3)c12 [Example 6.64, 8-(3-methylphenyl)-6-[(1-propylbutyl)amino]-7-[4-(trifluoromethyl)benzyl]-7H-purine-2-carboxylic acid]
Table 6
  IC50: 920 nM

## C[C@H]1CC[C@H](Cn2c(C(=O)C3CCOCC3)nc3nc(-c4n[nH]c(=O)o4)nc(-c4cccc(Cl)c4)c32)CC1 [Example 23.9, 5-[6-(3-chlorophenyl)-7-[(trans-4-methylcyclohexyl)methyl] -8-(tetrahydro-2H-pyran-4-ylcarbonyl)-7H-purin-2-yl]-1,3,4-oxadiazol-2(3H)-one]
Table 23
  IC50: 24.6 nM

## C[C@@H](Nc1nc(C(=O)O)nc2nc(Nc3ccccc3)n(Cc3ccc(C(F)(F)F)cc3)c12)C1CCC1 [Example 9.21, 6-{[(1R)-1-cyclobutylethyl]amino} -8-(phenylamino)-7-[4-(trifluoromethyl)benzyl]-7H-purine-2-carboxylic acid]
Table 9
  IC50: 9.44 nM

## CC(C)CN(C)c1nc2nc(-c3noc(=O)[nH]3)nc(N[C@H](C)C3CCC3)c2n1C[C@H]1CC[C@H](C)CC1 [Example 11.48, 3-(6-{[(1R)-1-cyclobutylethyl]amino}-7-[(trans-4-methylcyclohexyl)methyl]-8-[methyl(2-methylpropyl)amino] -7H-purin-2-yl)-1,2,4-oxadiazol-5(4H)-one]
Table 11
  IC50: 6.71 nM
